Molecular target: recombinant human SAE enzyme (Homo sapiens (Human), UniProt Q9UBT2)
Test: SAE HTRF enzyme assay
Type: biochemical
Conditions: for inhibition at 0.111 µM: read-out: Percent Inhibition
How it was run: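 Human SAE (0.11 nM) with 0.5 μM ATP, 0.125 μM Sumo-Flag and 0.01 μM Ubc9-GST in HEPES pH 7.5, 5 mM MgCl2, 250 μM GSH; 105 min at 24 °C. Stopped with EDTA; HTRF read after 2 h with Eu-anti-Flag and APC-anti-GST. Percent inhibition or IC50 reported.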

[1] = SAE inhibition at compound concentration 0.111 μM
[2] = SAE inhibition, class symbols, legend in nM

Chain of recombinant human SAE enzyme (Q9UBT2 whole entry): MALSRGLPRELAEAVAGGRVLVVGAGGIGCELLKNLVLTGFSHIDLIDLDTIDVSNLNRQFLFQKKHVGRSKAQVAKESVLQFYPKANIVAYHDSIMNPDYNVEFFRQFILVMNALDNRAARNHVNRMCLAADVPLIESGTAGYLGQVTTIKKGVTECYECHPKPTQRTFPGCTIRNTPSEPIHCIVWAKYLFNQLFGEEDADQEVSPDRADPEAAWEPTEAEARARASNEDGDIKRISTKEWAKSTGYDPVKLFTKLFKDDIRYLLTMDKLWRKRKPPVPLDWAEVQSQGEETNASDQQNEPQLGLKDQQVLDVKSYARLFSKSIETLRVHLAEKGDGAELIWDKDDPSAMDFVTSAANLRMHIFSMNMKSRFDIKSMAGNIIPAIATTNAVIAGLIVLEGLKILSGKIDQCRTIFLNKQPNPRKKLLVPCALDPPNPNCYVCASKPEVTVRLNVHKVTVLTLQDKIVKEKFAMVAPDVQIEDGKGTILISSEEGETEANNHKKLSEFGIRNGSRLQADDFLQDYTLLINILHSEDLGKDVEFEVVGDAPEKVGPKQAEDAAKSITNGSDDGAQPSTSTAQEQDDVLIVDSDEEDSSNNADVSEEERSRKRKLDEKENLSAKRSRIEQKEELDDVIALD
Chain of recombinant human SAE enzyme (Q9UBE0 whole entry partner): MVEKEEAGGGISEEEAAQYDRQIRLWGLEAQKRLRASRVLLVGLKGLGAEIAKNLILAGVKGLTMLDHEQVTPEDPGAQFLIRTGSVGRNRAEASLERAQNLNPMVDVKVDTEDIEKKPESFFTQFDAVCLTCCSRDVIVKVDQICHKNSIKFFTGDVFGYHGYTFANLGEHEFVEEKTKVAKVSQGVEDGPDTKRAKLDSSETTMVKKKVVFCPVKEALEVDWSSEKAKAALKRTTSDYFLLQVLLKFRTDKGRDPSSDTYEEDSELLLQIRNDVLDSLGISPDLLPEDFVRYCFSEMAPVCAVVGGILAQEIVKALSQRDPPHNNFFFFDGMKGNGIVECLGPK

For `CN1Cc2ccc(Cl)cc2[C@@H]1c1csc(C(=O)c2cncnc2N[C@@H]2C[C@H](COS(N)(=O)=O)[C@@H](O)C2)c1` (single isomer, unassigned) [I-265b, [(1R,2S,4R)-4-{[5-({4-[(1R)-6-chloro-2-methyl-2,3-dihydro-1H-isoindol-1-yl]-2-thienyl}carbonyl)pyrimidin-4-yl]amino}-2-hydroxycyclopentyl]methyl sulfamate or [(1R,2S,4R)-4-{[5-({4-[(1S)-6-chloro-2-methyl-2,3-dihydro-1H-isoindol-1-yl]-2-thienyl}carbonyl)pyrimidin-4-yl]amino}-2-hydroxycyclopentyl]methyl sulfamate], the “Percent Inhibition” value (Concentration 0.111 μM) was 72 and the IC50 (class symbols A/B/C) was 10 to 100 nM.
For `N[C@H](c1cccc(Cl)c1)c1csc(C(=O)c2cncnc2N[C@@H]2C[C@H](COS(N)(=O)=O)[C@@H](O)C2)c1` (single isomer, unassigned) [I-36a, [(1R,2S,4R)-4-{[5-({4-[(R)-amino(3-chlorophenyl)methyl]-2-thienyl}carbonyl)pyrimidin-4-yl]amino}-2-hydroxycyclopentyl]methyl sulfamate or [(1R,2S,4R)-4-{[5-({4-[(S)-amino(3-chlorophenyl)methyl]-2-thienyl}carbonyl)pyrimidin-4-yl]amino}-2-hydroxycyclopentyl]methyl sulfamate], the “Percent Inhibition” value (Concentration 0.111 μM) was 100 and the IC50 (class symbols A/B/C) was < 10 nM.
“{(1R,2S,4R)-4-[(5-{5-chloro-4-[(1R)-7-chloro-1,2,3,4-tetrahydroisoquinolin-1-yl]-2- [I-299]” was tested, and the “Percent Inhibition” value [1] was 98% and the IC50 [2] was < 10 nM.
In the case of `NS(=O)(=O)OC[C@H]1C[C@@H](Nc2ncncc2C(=O)c2cc([C@@H]3CCCc4ccc(Cl)cc43)cs2)C[C@@H]1O` (single isomer, unassigned) [I-335b, [(1R,2S,4R)-4-{[5-({4-[(1R)-7-chloro-1,2,3,4-tetrahydronaphthalen-1-yl]-2-thienyl}carbonyl)pyrimidin-4-yl]amino}-2-hydroxycyclopentyl]methyl sulfamate or [(1R,2S,4R)-4-{[5-({4-[(1S)-7-chloro-1,2,3,4-tetrahydronaphthalen-1-yl]-2-thienyl}carbonyl)pyrimidin-4-yl]amino}-2-hydroxycyclopentyl]methyl sulfamate], the “Percent Inhibition” value [1] is reported as 41% and the IC50 [2] is reported as 100 to 1000 nM.
For `NS(=O)(=O)OC[C@H]1C[C@@H](Nc2ncncc2C(=O)c2cc([C@@H]3CCc4ccc(Cl)cc43)cs2)C[C@@H]1O` (single isomer, unassigned) [I-349b, [(1R,2S,4R)-4-{[5-({4-[(1R)-6-chloro-2,3-dihydro-1H-inden-1-yl]-2-thienyl}carbonyl)pyrimidin-4-yl]amino}-2-hydroxycyclopentyl]methyl sulfamate or [(1R,2S,4R)-4-{[5-({4-[(1S)-6-chloro-2,3-dihydro-1H-inden-1-yl]-2-thienyl}carbonyl)pyrimidin-4-yl]amino}-2-hydroxycyclopentyl]methyl sulfamate], the “Percent Inhibition” value [1] was 58% and the IC50 [2] was 10 to 100 nM.
`NS(=O)(=O)OC[C@H]1C[C@@H](Nc2ncncc2C(=O)c2cc(C(=O)c3ccccc3)co2)C[C@@H]1O` [I-208, [(1R,2S,4R)-4-{[5-(4-benzoyl-2-furoyl)pyrimidin-4-yl]amino}-2-hydroxycyclopentyl]methyl sulfamate] showed an inhibition at 0.111 µM (Concentration 0.111 μM) of 46% and an IC50 (class symbols A/B/C) of 100 to 1000 nM.
With `CC(C)[C@@H](O)c1cc(C(=O)c2cncnc2N[C@@H]2C[C@H](COS(N)(=O)=O)[C@@H](O)C2)sc1Cl` (mixture of isomers) [I-195, [(1R,2S,4R)-4-{[5-({5-chloro-4-[(1R)-1-hydroxy-2-methylpropyl]-2-thienyl}carbonyl)pyrimidin-4-yl]amino}-2-hydroxycyclopentyl]methyl sulfamate and [(1R,2S,4R)-4-{[5-({5-chloro-4-[(1S)-1-hydroxy-2-methylpropyl]-2-thienyl}carbonyl)pyrimidin-4-yl]amino}-2-hydroxycyclopentyl]methyl sulfamate] the “Percent Inhibition” value (Concentration 0.111 μM) was 68 and the IC50 (class symbols A/B/C) was 10 to 100 nM.
For `CN1CCc2ccc(Cl)cc2[C@H]1c1csc(C(=O)c2cncnc2N[C@@H]2C[C@H](COS(N)(=O)=O)[C@@H](O)C2)c1` (mixture of isomers) [I-307, [(1R,2S,4R)-4-{[5-({4-[(1R)-7-chloro-2-methyl-1,2,3,4-tetrahydroisoquinolin-1-yl]-2-thienyl}carbonyl)pyrimidin-4-yl]amino}-2-hydroxycyclopentyl]methyl sulfamate and [(1R,2S,4R)-4-{[5-({4-[(1S)-7-chloro-2-methyl-1,2,3,4-tetrahydroisoquinolin-1-yl]-2-thienyl}carbonyl)pyrimidin-4-yl]amino}-2-hydroxycyclopentyl]methyl sulfamate], the “Percent Inhibition” value [1] was 95% and the IC50 [2] was < 10 nM.
`C=C(c1cccc(Cl)c1)c1cc(C(=O)c2cncnc2N[C@@H]2C[C@H](COS(N)(=O)=O)[C@@H](O)C2)sc1C` [I-100, [(1R,2S,4R)-4-{[5-({4-[1-(3-Chlorophenyl)vinyl]-5-methyl-2-thienyl}carbonyl)pyrimidin-4-yl]amino}-2-hydroxycyclopentyl]methyl sulfamate] was tested, and the inhibition at 0.111 µM (Concentration 0.111 μM) was 97% and the IC50 (class symbols A/B/C) was < 10 nM.
In the case of `Cc1ccc2c(n1)[C@H](c1cc(C(=O)c3cncnc3N[C@@H]3C[C@H](COS(N)(=O)=O)[C@@H](O)C3)sc1C)OCC2` (mixture of isomers) [I-291, [(1R,2S,4R)-2-hydroxy-4-{[5-({5-methyl-4-[(8S)-2-methyl-5,8-dihydro-6H-pyrano[3,4-b]pyridin-8-yl]-2-thienyl}carbonyl)pyrimidin-4-yl]amino}cyclopentyl]methyl sulfamate and [(1R,2S,4R)-2-hydroxy-4-{[5-({5-methyl-4-[(8R)-2-methyl-5,8-dihydro-6H-pyrano[3,4-b]pyridin-8-yl]-2-thienyl}carbonyl)pyrimidin-4-yl]amino}cyclopentyl]methyl sulfamate], the “Percent Inhibition” value [1] is reported as 99% and the IC50 [2] is reported as < 10 nM.
For `C[C@](N)(c1cccc(Br)c1)c1csc(C(=O)c2cncnc2N[C@@H]2C[C@H](COS(N)(=O)=O)[C@@H](O)[C@H]2O)c1` (single isomer, unassigned) [I-27b, [(1R,2R,3S,4R)-4-{[5-({4-[(1S)-1-amino-1-(3-bromophenyl)ethyl]-2-thienyl}carbonyl)pyrimidin-4-yl]amino}-2,3-dihydroxycyclopentyl]methyl sulfamate or [(1R,2R,3S,4R)-4-{[5-({4-[(1R)-1-amino-1-(3-bromophenyl)ethyl]-2-thienyl}carbonyl)pyrimidin-4-yl]amino}-2,3-dihydroxycyclopentyl]methyl sulfamate], the “Percent Inhibition” value (Concentration 0.111 μM) was 101 and the IC50 (class symbols A/B/C) was < 10 nM.
`NS(=O)(=O)OC[C@H]1C[C@@H](Nc2ncncc2C(=O)c2cc([C@@H]3OCC4(CC4)c4ccccc43)cs2)C[C@@H]1O` (single isomer, unassigned) [I-281b, [(1R,2S,4R)-2-hydroxy-4-{[5-({4-[(1′R)-1′H-spiro[cyclopropane-1,4′-isochromen]-1′-yl]-2-thienyl}carbonyl)pyrimidin-4-yl]amino}cyclopentyl]methyl sulfamate or [(1R,2S,4R)-2-hydroxy-4-{[5-({4-[(1′S)-1′H-spiro[cyclopropane-1,4′-isochromen]-1′-yl]-2-thienyl}carbonyl)pyrimidin-4-yl]amino}cyclopentyl]methyl sulfamate] was tested, and the “Percent Inhibition” value [1] was 99% and the IC50 [2] was < 10 nM.
For `NS(=O)(=O)OC[C@H]1C[C@@H](Nc2ncncc2C(=O)c2cc([C@@H]3OCCc4ccc(F)cc43)c(Cl)s2)C[C@@H]1O` (single isomer, unassigned) [I-294b, [(1R,2S,4R)-4-{[5-({5-chloro-4-[(1R)-7-fluoro-3,4-dihydro-1H-isochromen-1-yl]-2-thienyl}carbonyl)pyrimidin-4-yl]amino}-2-hydroxycyclopentyl]methyl sulfamate or [(1R,2S,4R)-4-{[5-({5-chloro-4-[(1S)-7-fluoro-3,4-dihydro-1H-isochromen-1-yl]-2-thienyl}carbonyl)pyrimidin-4-yl]amino}-2-hydroxycyclopentyl]methyl sulfamate], the “Percent Inhibition” value [1] was 98% and the IC50 [2] was < 10 nM.
`NS(=O)(=O)OC[C@H]1C[C@@H](Nc2ncncc2C(=O)c2cc(Cc3cccc(Br)n3)cs2)C[C@@H]1O` [I-53, [(1R,2S,4R)-4-{[5-({4-[(6-bromopyridin-2-yl)methyl]-2-thienyl}carbonyl)pyrimidin-4-yl]amino}-2-hydroxycyclopentyl]methyl sulfamate] showed an inhibition at 0.111 µM (Concentration 0.111 μM) of 99%.
`CN1CCc2ccc(Cl)cc2[C@@H]1c1csc(C(=O)c2cncnc2N[C@@H]2C[C@H](COS(N)(=O)=O)[C@@H](O)C2)c1` (single isomer, unassigned) [I-307a, [(1R,2S,4R)-4-{[5-({4-[(1R)-7-chloro-2-methyl-1,2,3,4-tetrahydroisoquinolin-1-yl]-2-thienyl}carbonyl)pyrimidin-4-yl]amino}-2-hydroxycyclopentyl]methyl sulfamate or [(1R,2S,4R)-4-{[5-({4-[(1S)-7-chloro-2-methyl-1,2,3,4-tetrahydroisoquinolin-1-yl]-2-thienyl}carbonyl)pyrimidin-4-yl]amino}-2-hydroxycyclopentyl]methyl sulfamate] was tested, and the “Percent Inhibition” value [1] was 45% and the IC50 [2] was 100 to 1000 nM.
For `NS(=O)(=O)OC[C@H]1C[C@@H](Nc2ncncc2C(=O)c2cc([C@@H]3NCCc4ccc(Br)cc43)c(Cl)s2)[C@H](O)[C@@H]1O` (single isomer, unassigned) [I-259b, [(1R,2R,3S,4R)-4-{[5-({4-[(1R)-7-bromo-1,2,3,4-tetrahydroisoquinolin-1-yl]-5-chloro-2-thienyl}carbonyl)pyrimidin-4-yl]amino}-2,3-dihydroxycyclopentyl]methyl sulfamate or [(1R,2R,3S,4R)-4-{[5-({4-[(1S)-7-bromo-1,2,3,4-tetrahydroisoquinolin-1-yl]-5-chloro-2-thienyl}carbonyl)pyrimidin-4-yl]amino}-2,3-dihydroxycyclopentyl]methyl sulfamate], the “Percent Inhibition” value (Concentration 0.111 μM) was 97 and the IC50 (class symbols A/B/C) was < 10 nM.

From patent US10780090B2, “Heteroaryl compounds useful as inhibitors of SUMO activating enzyme” (Millennium Pharmaceuticals, Inc., priority 2014, dated 2020)
